Patent US20250263376A1, “(E)-N-CINNAMOYLAMINOALKANOLS WITH MELANOGENESIS INHIBITORY ACTIVITY” (Uniwersytet Jagiellonski, priority 2024, published 2025)

Columns and labels:
keratinocytes (HaCaT) [1] = test: Safety, MTT test in keratinocytes; format: cell-based; conditions: 48 hours
Description: (§1) In order to test the safety of the compounds, both normal human cells were used: keratinocytes (HaCaT), fibroblasts (BJ), primary melanocytes that occur in the skin, as well as human cancer cells: the hepatocarcinoma line HepG2 and the neuroblastoma line SH-SY5Y, which are considered a model for the assessment of hepatocytotoxicity and neurocytotoxicity. The concentrations of the tested compounds in the range of […] were used in the studies. The cell lines used in the research were purchased from the American Type Culture Collection (ATCC) and were cultured in media recommended by the manufacturer with the addition of FBS and antibiotics in an incubator ensuring appropriate culture conditions, i.e. humidity, temperature and CO2 concentration. Cells were seeded into multiwell plates and incubated with the test compounds for 48 hours. After this time, MTT and LDH tests were performed to assess cell viability. The MTT test is based on the ability to transform the substrate: [3-(4,5-dimethyl-2-thiazolyl)-2,5-diphenyl-2H-tetrazolium bromide into a colored product only by living cells. The absorbance at 570 nm, which corresponds to the absorption maximum for the product, is directly proportional to cell viability. The LDH test is based on testing the activity of the enzyme lactate dehydrogenase in the culture medium, which is released from cells as a result of damage to the cell membrane, e.g. as a result of cell death. Triton X-100 was used as a positive control in the test. The determination is colorimetric, the substrate is transformed by the released enzyme into a colored product, an increase in absorbance indicates a larger amount of the released enzyme, and thus confirms greater damage to cell membranes. Tables 7 and 8 present the results obtained, which correspond to the viability of cells incubated with the compounds in relation to the viability of cells constituting a control sample, i.e. incubated with the solvent (DMSO) at the same concentration as in the case of the groups tested in the MTT test or in relation to the results obtained for the Triton X-100 positive control in the LDH test. They indicate that the compounds are safe at the concentrations tested.

keratinocytes (HaCaT) [2] = test: Safety, LDH test in keratinocytes; format: cell-based; conditions: 48 hours, vs Triton X-100
Description: as §1

fibroblasts (BJ) = test: Safety, MTT test in fibroblasts; format: cell-based; conditions: 48 hours
Description: as §1

primary melanocytes = test: Safety, MTT test in primary melanocytes; format: cell-based; conditions: 48 hours
Description: as §1

hepatocarcinoma HepG2 = test: Safety, MTT test in HepG2; format: cell-based; conditions: 48 hours
Description: as §1

neuroblastoma SH-SY5Y [3] = test: Safety, MTT test in SH-SY5Y; format: cell-based; conditions: 48 hours
Description: as §1

neuroblastoma SH-SY5Y [4] = test: Safety, LDH test in SH-SY5Y; format: cell-based; conditions: 48 hours, vs Triton X-100
Description: as §1

S. typhimurium TA100 = test: Ames microplate test, TA100; format: cell-based, Salmonella typhimurium
Description: (§2) The study used the Ames microplate test (Ames MPF™ Penta 2 by Xenometrix, Allschwil, Switzerland). Growth medium, exposure medium, indicator medium, positive controls, hepatic microsomal fraction, NADP, glucose-6-phosphate, Salmonella typhimurium and Escherichia coli strains were components of the purchased experimental kit. Bacteria were grown overnight in growth medium. They were then exposed to the test compound at the appropriate concentration in exposure medium without or with the rat microsomal fraction S9 in 24-well plates for 90 min at 37° C. with shaking. Then, indicator medium was added to the wells and pipetted into 384-well plates, which were incubated for 48 hours at 37° C. without shaking. Results were assessed by counting the wells in which the medium turned yellow for each experimental condition.

S. typhimurium TA1537 = test: Ames microplate test, TA1537; format: cell-based, Salmonella typhimurium
Description: Bacteria were grown overnight in growth medium.

CHO-K1 cells = test: Cytotoxicity (MTT) in CHO-K1 cells before the micronucleus test; format: cell-based, Chinese hamster; conditions: 24 hours
Description: The assay was performed using a Chinese hamster ovary cell line (CHO-K1) purchased from the American Type Culture Collection (ATCC). The cells were cultured in F-12K medium with the addition of 10% fetal bovine serum (FBS) and antibiotics (streptomycin/penicillin) in an incubator at 37° C. and 5% CO2 concentration). Before the actual micronucleus test, a cytotoxicity assessment was performed to ensure that the actual test was performed only at safe concentrations. For this purpose, cells were transferred to 96-well plates and incubated with the tested compounds for 24 hours. After this time, the MTT test was performed and cell viability was assessed in comparison to the control group (cells cultured with DMSO at the same concentration as in the case of the tested samples).

S. typhimurium TA1535 = test: Ames microplate test, TA1535;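 note: bacteria exposed 90 min at 37 °C in exposure medium, then 48 h in indicator medium in 384-well plates, yellow (revertant) wells counted per condition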
E. coli WP2 = test: Ames microplate test, E. coli WP2;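 note: bacteria exposed to compound for 90 min at 37 °C in 24-well plates, then transferred with indicator medium to 384-well plates and incubated 48 h before yellow well counting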
Description: as §2

O=C(/C=C/c1ccc(Cl)cc1)NCCCO [H-330/21, (2E)-3-(4-chlorophenyl)-N-(3-hydroxypropyl)prop-2-enamide]
MTT, Keratinocytes (HaCaT) (keratinocytes (HaCaT) [1]; 100 μM): 102.03 ± 1.45 % of solvent control | MTT, Keratinocytes (HaCaT) (keratinocytes (HaCaT) [1]; 150 μM): 101.42 ± 2.04 % of solvent control | MTT, Keratinocytes (HaCaT) (keratinocytes (HaCaT) [1]; 200 μM): 97.07 ± 2.81 % of solvent control | MTT, Keratinocytes (HaCaT) (keratinocytes (HaCaT) [1]; 250 μM): 94.89 ± 1.06 % of solvent control | LDH, Keratinocytes (HaCaT) (keratinocytes (HaCaT) [2]; 100 μM): 3.66 percentage of positive control | LDH, Keratinocytes (HaCaT) (keratinocytes (HaCaT) [2]; 150 μM): 5.33 percentage of positive control | LDH, Keratinocytes (HaCaT) (keratinocytes (HaCaT) [2]; 200 μM): 17.03 percentage of positive control | LDH, Keratinocytes (HaCaT) (keratinocytes (HaCaT) [2]; 250 μM): 24.24 percentage of positive control | MTT, Fibroblasts (BJ) (fibroblasts (BJ); 100 μM): 100.54 ± 5.01 % of solvent control | MTT, Fibroblasts (BJ) (fibroblasts (BJ); 150 μM): 94.85 ± 3.51 % of solvent control | MTT, Fibroblasts (BJ) (fibroblasts (BJ); 200 μM): 85.52 ± 3.08 % of solvent control | MTT, Fibroblasts (BJ) (fibroblasts (BJ); 250 μM): 76.51 ± 1.80 % of solvent control | MTT, Primary melanocytes (primary melanocytes; 100 μM): 101.42 ± 2.21 % of solvent control | MTT, Primary melanocytes (primary melanocytes; 150 μM): 97.02 ± 4.49 % of solvent control | MTT, Primary melanocytes (primary melanocytes; 200 μM): 93.78 ± 2.29 % of solvent control | MTT, Primary melanocytes (primary melanocytes; 250 μM): 90.27 ± 2.25 % of solvent control | MTT, Hepatocarcinoma HepG2 (hepatocarcinoma HepG2; 100 μM): 100.73 ± 4.51 % of solvent control | MTT, Hepatocarcinoma HepG2 (hepatocarcinoma HepG2; 150 μM): 100.44 ± 3.93 % of solvent control | MTT, Hepatocarcinoma HepG2 (hepatocarcinoma HepG2; 200 μM): 100.86 ± 6.41 % of solvent control | MTT, Hepatocarcinoma HepG2 (hepatocarcinoma HepG2; 250 μM): 93.16 ± 1.71 % of solvent control | MTT, Neuroblastoma SH-SY5Y (neuroblastoma SH-SY5Y [3]; 100 μM): 99.79 ± 5.34 % of solvent control | MTT, Neuroblastoma SH-SY5Y (neuroblastoma SH-SY5Y [3]; 150 μM): 99.86 ± 3.76 % of solvent control | MTT, Neuroblastoma SH-SY5Y (neuroblastoma SH-SY5Y [3]; 200 μM): 99.79 ± 3.97 % of solvent control | MTT, Neuroblastoma SH-SY5Y (neuroblastoma SH-SY5Y [3]; 250 μM): 99.11 ± 3.66 % of solvent control | LDH, Neuroblastoma SH-SY5Y (neuroblastoma SH-SY5Y [4]; 100 μM): 6.19 percentage of positive control | LDH, Neuroblastoma SH-SY5Y (neuroblastoma SH-SY5Y [4]; 150 μM): 4.90 percentage of positive control | LDH, Neuroblastoma SH-SY5Y (neuroblastoma SH-SY5Y [4]; 200 μM): 8.35 percentage of positive control | LDH, Neuroblastoma SH-SY5Y (neuroblastoma SH-SY5Y [4]; 250 μM): 13.41 percentage of positive control

O=C(/C=C/c1ccccc1)NCCCCCCO [H-425/21, (E)-N-(6-hydroxyhexyl)cinnamic acid amide]
Increase in the number of yellow wells compared to the reference level, TA100 (S. typhimurium TA100; 0.5 mM, + S9): 0.50 | Increase in the number of yellow wells compared to the reference level, TA100 (S. typhimurium TA100; 0.5 mM, without S9): 0.73 | Increase in the number of yellow wells compared to the reference level, TA100 (S. typhimurium TA100; 1.0 mM, + S9): 0.69 | Increase in the number of yellow wells compared to the reference level, TA100 (S. typhimurium TA100; 1.0 mM, without S9): 0.80 | Increase in the number of yellow wells compared to the reference level, TA100 (S. typhimurium TA100; 2.0 mM, + S9): 0.58 | Increase in the number of yellow wells compared to the reference level, TA100 (S. typhimurium TA100; 2.0 mM, without S9): 0.73 | Increase in the number of yellow wells compared to the reference level, TA1537 (S. typhimurium TA1537; 0.5 mM, + S9): 1.33 | Increase in the number of yellow wells compared to the reference level, TA1537 (S. typhimurium TA1537; 0.5 mM, without S9): 0.09 | Increase in the number of yellow wells compared to the reference level, TA1537 (S. typhimurium TA1537; 1.0 mM, + S9): 0.00 | Increase in the number of yellow wells compared to the reference level, TA1537 (S. typhimurium TA1537; 1.0 mM, without S9): 0.18 | Increase in the number of yellow wells compared to the reference level, TA1537 (S. typhimurium TA1537; 2.0 mM, + S9): 1.00 | Increase in the number of yellow wells compared to the reference level, TA1537 (S. typhimurium TA1537; 2.0 mM, without S9): 0.82 | % Viability [mean], CHO-K1 (CHO-K1 cells; 100 μM): 87.6% | % Viability [mean], CHO-K1 (CHO-K1 cells; 150 μM): 83.8% | % Viability [mean], CHO-K1 (CHO-K1 cells; 200 μM): 88.0% | Increase in the number of yellow wells compared to the reference level, TA1535 (S. typhimurium TA1535; 0.5 mM, + S9): 0.54 | Increase in the number of yellow wells compared to the reference level, TA1535 (S. typhimurium TA1535; 0.5 mM, without S9): 1.04 | Increase in the number of yellow wells compared to the reference level, TA1535 (S. typhimurium TA1535; 1.0 mM, + S9): 0.40 | Increase in the number of yellow wells compared to the reference level, TA1535 (S. typhimurium TA1535; 1.0 mM, without S9): 0.59 | Increase in the number of yellow wells compared to the reference level, TA1535 (S. typhimurium TA1535; 2.0 mM, + S9): 0.94 | Increase in the number of yellow wells compared to the reference level, TA1535 (S. typhimurium TA1535; 2.0 mM, without S9): 0.45 | Increase in the number of yellow wells compared to the reference level, E. coli WP2 (E. coli WP2; 0.5 mM, + S9): 0.75 | Increase in the number of yellow wells compared to the reference level, E. coli WP2 (E. coli WP2; 0.5 mM, without S9): 0.17 | Increase in the number of yellow wells compared to the reference level, E. coli WP2 (E. coli WP2; 1.0 mM, + S9): 0.83 | Increase in the number of yellow wells compared to the reference level, E. coli WP2 (E. coli WP2; 1.0 mM, without S9): 0.67 | Increase in the number of yellow wells compared to the reference level, E. coli WP2 (E. coli WP2; 2.0 mM, + S9): 0.75 | Increase in the number of yellow wells compared to the reference level, E. coli WP2 (E. coli WP2; 2.0 mM, without S9): 1.00

O=C(/C=C/c1ccc(Cl)cc1)NCCO [H-427/21, (2E)-3-(4-chlorophenyl)-N-(2-hydroxyethyl)prop-2-enamide]
MTT, Keratinocytes (HaCaT) (keratinocytes (HaCaT) [1]; 100 μM): 100.47 ± 3.65 % of solvent control | MTT, Keratinocytes (HaCaT) (keratinocytes (HaCaT) [1]; 150 μM): 98.15 ± 2.63 % of solvent control | MTT, Keratinocytes (HaCaT) (keratinocytes (HaCaT) [1]; 200 μM): 99.24 ± 3.00 % of solvent control | MTT, Keratinocytes (HaCaT) (keratinocytes (HaCaT) [1]; 250 μM): 89.94 ± 4.66 % of solvent control | LDH, Keratinocytes (HaCaT) (keratinocytes (HaCaT) [2]; 100 μM): 2.76 percentage of positive control | LDH, Keratinocytes (HaCaT) (keratinocytes (HaCaT) [2]; 150 μM): 3.69 percentage of positive control | LDH, Keratinocytes (HaCaT) (keratinocytes (HaCaT) [2]; 200 μM): 6.50 percentage of positive control | LDH, Keratinocytes (HaCaT) (keratinocytes (HaCaT) [2]; 250 μM): 17.79 percentage of positive control | MTT, Fibroblasts (BJ) (fibroblasts (BJ); 100 μM): 101.82 ± 3.99 % of solvent control | MTT, Fibroblasts (BJ) (fibroblasts (BJ); 150 μM): 100.76 ± 3.34 % of solvent control | MTT, Fibroblasts (BJ) (fibroblasts (BJ); 200 μM): 100.37 ± 3.92 % of solvent control | MTT, Fibroblasts (BJ) (fibroblasts (BJ); 250 μM): 98.13 ± 2.81 % of solvent control | MTT, Primary melanocytes (primary melanocytes; 100 μM): 102.20 ± 2.24 % of solvent control | MTT, Primary melanocytes (primary melanocytes; 150 μM): 100.57 ± 2.18 % of solvent control | MTT, Primary melanocytes (primary melanocytes; 200 μM): 93.78 ± 2.18 % of solvent control | MTT, Primary melanocytes (primary melanocytes; 250 μM): 85.19 ± 2.03 % of solvent control | MTT, Hepatocarcinoma HepG2 (hepatocarcinoma HepG2; 100 μM): 99.61 ± 4.37 % of solvent control | MTT, Hepatocarcinoma HepG2 (hepatocarcinoma HepG2; 150 μM): 98.44 ± 3.94 % of solvent control | MTT, Hepatocarcinoma HepG2 (hepatocarcinoma HepG2; 200 μM): 97.07 ± 4.00 % of solvent control | MTT, Hepatocarcinoma HepG2 (hepatocarcinoma HepG2; 250 μM): 100.08 ± 10.58 % of solvent control | MTT, Neuroblastoma SH-SY5Y (neuroblastoma SH-SY5Y [3]; 100 μM): 100.48 ± 3.67 % of solvent control | MTT, Neuroblastoma SH-SY5Y (neuroblastoma SH-SY5Y [3]; 150 μM): 100.96 ± 2.72 % of solvent control | MTT, Neuroblastoma SH-SY5Y (neuroblastoma SH-SY5Y [3]; 200 μM): 101.30 ± 2.94 % of solvent control | MTT, Neuroblastoma SH-SY5Y (neuroblastoma SH-SY5Y [3]; 250 μM): 102.60 ± 9.66 % of solvent control | LDH, Neuroblastoma SH-SY5Y (neuroblastoma SH-SY5Y [4]; 100 μM): 3.09 percentage of positive control | LDH, Neuroblastoma SH-SY5Y (neuroblastoma SH-SY5Y [4]; 150 μM): 4.45 percentage of positive control | LDH, Neuroblastoma SH-SY5Y (neuroblastoma SH-SY5Y [4]; 200 μM): 5.98 percentage of positive control | LDH, Neuroblastoma SH-SY5Y (neuroblastoma SH-SY5Y [4]; 250 μM): 8.87 percentage of positive control
